The values that follow come from US20230390274A1 (EPIRIUM BIO INC., priority 2020, published 2023).

The target of this test is 15-PGDH/HPGD (Homo sapiens (Human), UniProt P15428). The test is described as follows: hPGDH inhibitor screening biochemical assay. The gist of the method: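 10 nM recombinant 15-PGDH was preincubated with compound (10-point) for 10 min at 37° C. in 50 mM Tris-HCl pH 7.5, 0.01% Tween 20. Then 15 μM PGE2 and 0.25 mM NAD+ were added for 10 min at rt. NADH fluorescence (ex/em 340/485 nm) gave % inhibition versus 1% DMSO and a four-parameter IC50.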
Sequence of 15-PGDH/HPGD (P15428 whole entry): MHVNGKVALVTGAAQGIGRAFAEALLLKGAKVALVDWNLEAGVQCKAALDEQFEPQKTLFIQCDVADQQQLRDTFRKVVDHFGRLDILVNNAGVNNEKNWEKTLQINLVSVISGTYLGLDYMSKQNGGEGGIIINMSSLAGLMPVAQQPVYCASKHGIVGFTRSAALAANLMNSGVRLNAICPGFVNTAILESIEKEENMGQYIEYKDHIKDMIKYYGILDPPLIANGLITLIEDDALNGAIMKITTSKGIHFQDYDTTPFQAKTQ

The mark [1] stands for this setting: 10 nM 15-PGDH/HPGD, 15 μM PGE2, 0.25 mM NAD, read-out: hPGDH: Average IC50.
Setting [2] is: Table 1, PGDH inhibitors with a 6-5 ring core, read-out: hPGDH: IC50.

Like-named read-outs stand apart in the source and are kept apart here.

One may read the IC50 as the concentration that inhibits the measured activity by half. As to `Cc1nc(-c2ccc(-n3c(CCC(C)(C)O)cc4cc(C(=O)N5CCC(F)(F)CC5)cnc43)cc2)no1` [A-337, (4,4-difluoropiperidin-1-yl)(2-(3-hydroxy-3-methylbutyl)-1-(4-(5-methyl-1,2,4-oxadiazol-3-yl)phenyl)-1H-pyrrolo[2,3-b]pyridin-5-yl)methanone], under setting [1], the IC50 is < 100 nM. The same measure, in the same setting: as for `C[C@H]1CCCN(C(=O)c2cnc3c(ccn3-c3ccc(C(=O)O)cc3)c2)C1` [A-339, (S)-4-(5-(3-methylpiperidine-1-carbonyl)-1H-pyrrolo[2,3-b]pyridin-1-yl)benzoic acid], the figure is < 100 nM.

As to `COCCc1nc2cc(C(=O)N3CCC(F)CC3)cnc2n1-c1ccc(OC)cc1` [A-342], the IC50 under setting [1] is ≥ 1000 nM. Consider `NC(=O)c1cncc(-n2ccc3cc(C(=O)N4CCC(F)CC4)cnc32)c1` [A-346], for which the IC50 under setting [1] was < 100 nM. Take `NC(=O)c1ccc(-n2ccc3cc(C(=O)N4CCC(F)CC4)cnc32)cn1` [A-347]: the IC50 under setting [1] is < 100 nM.

Take `NC(=O)c1cncc(-n2ccc3cc(C(=O)N4CCCCC4)cnc32)c1` [A-348]: under setting [1], the IC50 is < 100 nM. Still for that read-out and setting: as for `CNC(=O)c1cncc(-n2ccc3cc(C(=O)N4CCCCC4)cnc32)c1` [A-349], the figure is < 100 nM; as for `CN(C)C(=O)c1cncc(-n2ccc3cc(C(=O)N4CCCCC4)cnc32)c1` [A-350], < 100 nM.

For `N#Cc1cncc(-n2ccc3cc(C(=O)N4CCCCC4)cnc32)c1` [A-351], the IC50 under setting [1] is < 100 nM.

As for `COc1ccc(-n2cnc3cc(C(=O)N4CCC(F)(F)CC4)cnc32)cc1` [drawing 78], under setting [2], the IC50 came to 57.4 nM. The same measure, in the same setting: as for `COc1ccc(-n2cnc3cc(C(=O)N4CCC(F)CC4)cnc32)cc1` [drawing 79], the figure is 19.5 nM. Same read-out and setting: the figure for `COc1ccc(-n2cnc3cc(C(=O)N4CCCCC4)cnc32)cc1` [drawing 80] is 20.1 nM; for `O=C(c1cnc2c(ccn2-c2cnccn2)c1)N1CCCCC1` [drawing 81] it is 0.6 nM; for `O=C(c1ccc2c(c1)ncn2-c1ccc(O)c(Cl)c1)N1CCCCC1` [drawing 82] it is 2.5 nM.

Consider `O=C(c1ccc2c(c1)ncn2-c1cccc(Cl)c1)N1CCC(F)(F)C1` [drawing 83], for which the IC50 under setting [2] came out at 1260 nM.

As for `O=C(c1ccc2c(c1)ncn2-c1cccc(Cl)c1)N1CCC(O)C1` (stereo not drawn) [drawing 84], the IC50 under setting [2] turned out to be 2870 nM. On the same count and under the same terms, the figure for `NC(=O)CCc1nc2cc(C(=O)N3CCCCC3)ccc2n1-c1cccc(Cl)c1` [drawing 85] is 44.9 nM. Still for that read-out and setting: the figure for `O=C1CCN(C(=O)c2ccc3c(c2)ncn3-c2cccc(Cl)c2)C1` [drawing 88] is 4540 nM; for `Cc1nc2cc(C(=O)N3CCCCC3)ccc2n1-c1cccc(Cl)c1` [drawing 89] it is 5.6 nM. In the case of `O=C(c1ccc2c(c1)ncn2-c1cccc(Cl)c1)N1CCC(Cl)C1` (stereo not drawn) [drawing 90], the IC50 under setting [2] worked out at 64.7 nM.

`O=C(c1ccn2c(-c3cccc(Cl)c3)cnc2c1)N1CCCCC1` [drawing 93]: under setting [2], the IC50 was 5.7 nM. On the same count and under the same terms, as for `O=C(c1ccc2c(c1)ncn2-c1cccc(Cl)c1)N1CCC(F)(F)CC1` [drawing 96], the figure is 12.2 nM; as for `O=C(c1ccc2c(c1)ncn2-c1cccc(Cl)c1)N1CC2CCC(C2)C1` [drawing 97], 46.6 nM. Still for that read-out and setting: the figure for `O=C(c1ccc2c(c1)ncn2-c1cccc(Cl)c1)N1CCCCC1` [drawing 98] is 2.7 nM; for `O=C(c1ccc2c(c1)ncn2-c1cccc(Cl)c1)N1CC2(CCC2)C1` [drawing 99] it is 43.9 nM. As for `O=C(c1ccc2c(c1)ncn2-c1cccc(Cl)c1)N1CCCCCC1` [drawing 101], the IC50 under setting [2] amounted to 3.2 nM. Same read-out and setting: as for `O=C(c1ccc2c(c1)ncn2-c1cccc(Cl)c1)N1CC2CCCC2C1` (stereo not drawn) [drawing 102], the figure is 24.9 nM. Same read-out and setting: the figure for `O=C(c1ccc2c(c1)c(Cl)cn2-c1cccc(Cl)c1)N1CCCCC1` [drawing 104] is 10.6 nM. Take `O=C(c1cnc2c(c1)ncn2-c1cccc(Cl)c1)N1CCCCC1` [drawing 106]: the IC50 under setting [2] came to 12.8 nM. On to `O=C(c1cnc2c(-c3cccc(Cl)c3)cnn2c1)N1CCCCC1` [drawing 107], for which the IC50 under setting [2] stood at 49.3 nM.
